Measurements as given in patent US20080146617A1, “Methods of treating inflammatory diseases” (Roche Palo Alto LLC, priority 2006, published 2008).
Like-named read-outs stand apart in the source and are kept apart here.

Legend:
Assay in all cases: KinomeScan kinase profiling
Format in all cases: binding
PAK1 = molecular target: T1, PAK1 (Homo sapiens, UniProt Q13153)
T1 construct: purchased Ambit Biosciences (San Diego, Calif.)
Excerpt: (§1) The selectivity of a given CK1δ, CK1ε or CK1δ-CK1ε inhibitor compound can be determined by testing the compound against a panel of known kinases. An example of such a kinase profiling technology is the “KinomeScan” from Ambit Biosciences in which compounds can be screened for their modulatory activities against more than 200 known kinases.

ACK1 = molecular target: T2, ACK1 (Homo sapiens, UniProt Q07912)
T2 construct: purchased Ambit Biosciences (San Diego, Calif.)
Excerpt: as §1

STK11 = molecular target: T3, STK11 (Homo sapiens, UniProt Q15831)
T3 construct: purchased Ambit Biosciences
Excerpt: as §1

CSNK2A1 = molecular target: T4, CSNK2A1 (Homo sapiens, UniProt P68400)
T4 construct: purchased Ambit Biosciences (San Diego, Calif.)
Excerpt: as §1

RIPK2 = molecular target: T5, RIPK2 (Homo sapiens, UniProt O43353)
T5 construct: purchased Ambit Biosciences
Excerpt: as §1

FLT3 = molecular target: T6, FLT3 (Homo sapiens, UniProt P36888)
T6 construct: purchased Ambit Biosciences (San Diego, Calif.)
Excerpt: as §1

PIM2 = molecular target: T7, PIM2 (Homo sapiens, UniProt Q9P1W9)
T7 construct: purchased Ambit Biosciences (San Diego, Calif.)
Excerpt: as §1

FGFR1 = molecular target: T8, FGFR1 (Homo sapiens, UniProt P11362)
T8 construct: purchased Ambit Biosciences (San Diego, Calif.)
Excerpt: as §1

NEK6 = molecular target: T9, NEK6 (Homo sapiens, UniProt Q9HC98)
T9 construct: purchased Ambit Biosciences (San Diego, Calif.)
Excerpt: as §1

ITK = molecular target: T10, ITK (Homo sapiens, UniProt Q08881)
T10 construct: purchased Ambit Biosciences (San Diego, Calif.)
Excerpt: as §1

CSK = molecular target: T11, CSK (Homo sapiens, UniProt P41240)
T11 construct: purchased Ambit Biosciences (San Diego, Calif.)
Excerpt: as §1

FRK = molecular target: T12, FRK (Homo sapiens, UniProt P42685)
T12 construct: purchased Ambit Biosciences (San Diego, Calif.)
Excerpt: as §1

YES = molecular target: T13, YES (Homo sapiens, UniProt P07947)
T13 construct: purchased Ambit Biosciences (San Diego, Calif.)
Excerpt: as §1

LTK = molecular target: T14, LTK (Homo sapiens, UniProt P29376)
T14 construct: purchased Ambit Biosciences (San Diego, Calif.)
Excerpt: as §1

ULK3(mouse) = molecular target: T15, ULK3(mouse) (Mus musculus, UniProt Q3U3Q1)
T15 construct: purchased Ambit Biosciences (San Diego, Calif.)
Excerpt: as §1

CAMK2G = molecular target: T16, CAMK2G (Homo sapiens, UniProt Q13555)
T16 construct: purchased Ambit Biosciences (San Diego, Calif.)
Excerpt: as §1

CAMK1D = molecular target: T17, CAMK1D (Homo sapiens, UniProt Q8IU85)
T17 construct: purchased Ambit Biosciences (San Diego, Calif.)
Excerpt: as §1

EPHA8 = molecular target: T18, EPHA8 (Homo sapiens, UniProt P29322)
T18 construct: purchased Ambit Biosciences (San Diego, Calif.)
Excerpt: as §1

ROS1 = molecular target: T19, ROS1 (Homo sapiens, UniProt P08922)
T19 construct: purchased Ambit Biosciences
Excerpt: as §1

ERBB2 = molecular target: T20, ERBB2 (Homo sapiens, UniProt P04626)
T20 construct: purchased Ambit Biosciences (San Diego, Calif.)
Excerpt: as §1

CLK3 = molecular target: T21, CLK3 (Homo sapiens, UniProt P49761)
T21 construct: purchased Ambit Biosciences (San Diego, Calif.)
Excerpt: as §1

JNK1 = molecular target: T22, JNK1 (Homo sapiens, UniProt P45983)
T22 construct: purchased Ambit Biosciences (San Diego, Calif.)
Excerpt: as §1

PLK4 = molecular target: T23, PLK4 (Homo sapiens, UniProt O00444)
T23 construct: purchased Ambit Biosciences (San Diego, Calif.)
Excerpt: as §1

IGF1R = molecular target: T24, IGF1R (Homo sapiens, UniProt P08069)
T24 construct: purchased Ambit Biosciences (San Diego, Calif.)
Excerpt: as §1

PHKG2 = molecular target: T25, PHKG2 (Homo sapiens, UniProt P15735)
T25 construct: purchased Ambit Biosciences (San Diego, Calif.)
Excerpt: as §1

CSNK1G1 = molecular target: T26, CSNK1G1 (Homo sapiens, UniProt Q9HCP0)
T26 construct: purchased Ambit Biosciences (San Diego, Calif.)
Excerpt: as §1

BIKE = molecular target: T27, BIKE (Homo sapiens, UniProt Q9NSY1)
T27 construct: purchased Ambit Biosciences (San Diego, Calif.)
Excerpt: as §1

STK10 = molecular target: T28, STK10 (Homo sapiens, UniProt O94804)
T28 construct: purchased Ambit Biosciences
Excerpt: as §1

TTK = molecular target: T29, TTK (Homo sapiens, UniProt P33981)
T29 construct: purchased Ambit Biosciences
Excerpt: as §1

FES = molecular target: T30, FES (Homo sapiens, UniProt P07332)
T30 construct: purchased Ambit Biosciences (San Diego, Calif.)
Excerpt: as §1

STK17A = molecular target: T31, STK17A (Homo sapiens, UniProt Q9UEE5)
T31 construct: purchased Ambit Biosciences
Excerpt: as §1

AURKC = molecular target: T32, AURKC (Homo sapiens, UniProt Q9UQB9)
T32 construct: purchased Ambit Biosciences (San Diego, Calif.)
Excerpt: as §1

ERBB4 = molecular target: T33, ERBB4 (Homo sapiens, UniProt Q15303)
T33 construct: purchased Ambit Biosciences (San Diego, Calif.)
Excerpt: as §1

STK17B = molecular target: T34, STK17B (Homo sapiens, UniProt O94768)
T34 construct: purchased Ambit Biosciences
Excerpt: as §1

AAK1 = molecular target: T35, AAK1 (Homo sapiens, UniProt Q2M2I8)
T35 construct: purchased Ambit Biosciences (San Diego, Calif.)
Excerpt: as §1

JAK1(Kin.Dom1) = molecular target: T36, JAK1(Kin.Dom1) (Homo sapiens, UniProt P23458)
T36 construct: JAK1(Kin.Dom1); purchased Ambit Biosciences (San Diego, Calif.)
Excerpt: as §1

EGFR = molecular target: T37, EGFR (Homo sapiens, UniProt P00533)
T37 construct: purchased Ambit Biosciences (San Diego, Calif.)
Excerpt: as §1

SRC = molecular target: T38, SRC (Homo sapiens, UniProt P12931)
T38 construct: purchased Ambit Biosciences
Excerpt: as §1

VEGFR2 = molecular target: T39, VEGFR2 (Homo sapiens, UniProt P35968)
T39 construct: purchased Ambit Biosciences (San Diego, Calif.)
Excerpt: as §1

CAMK1G = molecular target: T40, CAMK1G (Homo sapiens, UniProt Q96NX5)
T40 construct: purchased Ambit Biosciences (San Diego, Calif.)
Excerpt: as §1

Measured: inhibition at 10 µM

T36 sequence (P23458 583-855 limits assumed): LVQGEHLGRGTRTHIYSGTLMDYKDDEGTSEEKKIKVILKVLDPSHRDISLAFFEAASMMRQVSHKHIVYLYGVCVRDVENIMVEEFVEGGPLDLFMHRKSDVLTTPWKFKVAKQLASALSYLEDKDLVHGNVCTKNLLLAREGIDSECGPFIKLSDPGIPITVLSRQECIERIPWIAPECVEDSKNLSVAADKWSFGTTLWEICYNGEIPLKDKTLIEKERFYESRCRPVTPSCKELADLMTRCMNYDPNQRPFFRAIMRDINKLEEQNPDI
T21 sequence (P49761 whole entry): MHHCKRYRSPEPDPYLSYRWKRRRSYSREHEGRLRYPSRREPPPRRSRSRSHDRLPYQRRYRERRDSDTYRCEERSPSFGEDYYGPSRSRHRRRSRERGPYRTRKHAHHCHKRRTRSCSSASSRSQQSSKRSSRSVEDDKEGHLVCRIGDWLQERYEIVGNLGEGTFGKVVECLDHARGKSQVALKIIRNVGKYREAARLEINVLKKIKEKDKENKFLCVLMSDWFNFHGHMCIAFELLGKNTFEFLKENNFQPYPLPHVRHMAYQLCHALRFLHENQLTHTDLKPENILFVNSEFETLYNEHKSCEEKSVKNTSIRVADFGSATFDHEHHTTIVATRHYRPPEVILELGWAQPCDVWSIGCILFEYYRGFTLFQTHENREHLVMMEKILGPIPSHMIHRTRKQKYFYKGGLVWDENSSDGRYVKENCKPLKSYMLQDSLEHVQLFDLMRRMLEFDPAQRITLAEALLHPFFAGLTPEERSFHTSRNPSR
T3 sequence (Q15831 whole entry): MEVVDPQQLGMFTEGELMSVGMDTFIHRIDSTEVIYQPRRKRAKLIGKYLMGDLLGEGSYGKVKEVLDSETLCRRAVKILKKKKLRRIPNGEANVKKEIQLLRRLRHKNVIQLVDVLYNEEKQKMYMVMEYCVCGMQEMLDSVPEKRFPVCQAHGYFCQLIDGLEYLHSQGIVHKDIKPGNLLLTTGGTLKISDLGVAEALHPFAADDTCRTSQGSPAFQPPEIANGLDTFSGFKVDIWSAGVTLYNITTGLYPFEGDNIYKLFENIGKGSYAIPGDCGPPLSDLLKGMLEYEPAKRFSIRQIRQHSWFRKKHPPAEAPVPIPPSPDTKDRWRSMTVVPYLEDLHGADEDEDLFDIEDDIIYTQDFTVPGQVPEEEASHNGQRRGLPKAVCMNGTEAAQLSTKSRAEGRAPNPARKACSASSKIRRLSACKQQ
T29 sequence (P33981 whole entry): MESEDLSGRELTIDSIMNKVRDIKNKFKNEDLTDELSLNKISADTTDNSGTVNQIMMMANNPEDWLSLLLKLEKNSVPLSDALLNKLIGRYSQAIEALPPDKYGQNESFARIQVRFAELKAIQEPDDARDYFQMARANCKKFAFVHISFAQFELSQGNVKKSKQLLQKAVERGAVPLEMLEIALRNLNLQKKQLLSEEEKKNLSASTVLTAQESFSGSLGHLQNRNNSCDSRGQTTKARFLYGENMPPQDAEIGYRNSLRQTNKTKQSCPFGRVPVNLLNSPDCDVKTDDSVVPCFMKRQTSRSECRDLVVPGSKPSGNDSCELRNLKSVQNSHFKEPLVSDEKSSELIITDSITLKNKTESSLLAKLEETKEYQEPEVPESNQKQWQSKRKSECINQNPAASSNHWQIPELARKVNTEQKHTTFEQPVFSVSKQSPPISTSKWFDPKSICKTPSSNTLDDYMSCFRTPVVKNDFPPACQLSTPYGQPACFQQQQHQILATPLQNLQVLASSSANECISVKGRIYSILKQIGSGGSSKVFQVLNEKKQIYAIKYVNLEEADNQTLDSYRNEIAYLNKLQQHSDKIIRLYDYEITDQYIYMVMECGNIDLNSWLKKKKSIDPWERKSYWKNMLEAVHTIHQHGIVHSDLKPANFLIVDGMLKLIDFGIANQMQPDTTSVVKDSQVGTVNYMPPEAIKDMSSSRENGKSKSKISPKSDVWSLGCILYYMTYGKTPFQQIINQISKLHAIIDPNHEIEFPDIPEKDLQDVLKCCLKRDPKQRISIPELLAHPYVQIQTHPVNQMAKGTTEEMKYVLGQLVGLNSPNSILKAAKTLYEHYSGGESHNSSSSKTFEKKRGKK
T24 sequence (P08069 31-1367): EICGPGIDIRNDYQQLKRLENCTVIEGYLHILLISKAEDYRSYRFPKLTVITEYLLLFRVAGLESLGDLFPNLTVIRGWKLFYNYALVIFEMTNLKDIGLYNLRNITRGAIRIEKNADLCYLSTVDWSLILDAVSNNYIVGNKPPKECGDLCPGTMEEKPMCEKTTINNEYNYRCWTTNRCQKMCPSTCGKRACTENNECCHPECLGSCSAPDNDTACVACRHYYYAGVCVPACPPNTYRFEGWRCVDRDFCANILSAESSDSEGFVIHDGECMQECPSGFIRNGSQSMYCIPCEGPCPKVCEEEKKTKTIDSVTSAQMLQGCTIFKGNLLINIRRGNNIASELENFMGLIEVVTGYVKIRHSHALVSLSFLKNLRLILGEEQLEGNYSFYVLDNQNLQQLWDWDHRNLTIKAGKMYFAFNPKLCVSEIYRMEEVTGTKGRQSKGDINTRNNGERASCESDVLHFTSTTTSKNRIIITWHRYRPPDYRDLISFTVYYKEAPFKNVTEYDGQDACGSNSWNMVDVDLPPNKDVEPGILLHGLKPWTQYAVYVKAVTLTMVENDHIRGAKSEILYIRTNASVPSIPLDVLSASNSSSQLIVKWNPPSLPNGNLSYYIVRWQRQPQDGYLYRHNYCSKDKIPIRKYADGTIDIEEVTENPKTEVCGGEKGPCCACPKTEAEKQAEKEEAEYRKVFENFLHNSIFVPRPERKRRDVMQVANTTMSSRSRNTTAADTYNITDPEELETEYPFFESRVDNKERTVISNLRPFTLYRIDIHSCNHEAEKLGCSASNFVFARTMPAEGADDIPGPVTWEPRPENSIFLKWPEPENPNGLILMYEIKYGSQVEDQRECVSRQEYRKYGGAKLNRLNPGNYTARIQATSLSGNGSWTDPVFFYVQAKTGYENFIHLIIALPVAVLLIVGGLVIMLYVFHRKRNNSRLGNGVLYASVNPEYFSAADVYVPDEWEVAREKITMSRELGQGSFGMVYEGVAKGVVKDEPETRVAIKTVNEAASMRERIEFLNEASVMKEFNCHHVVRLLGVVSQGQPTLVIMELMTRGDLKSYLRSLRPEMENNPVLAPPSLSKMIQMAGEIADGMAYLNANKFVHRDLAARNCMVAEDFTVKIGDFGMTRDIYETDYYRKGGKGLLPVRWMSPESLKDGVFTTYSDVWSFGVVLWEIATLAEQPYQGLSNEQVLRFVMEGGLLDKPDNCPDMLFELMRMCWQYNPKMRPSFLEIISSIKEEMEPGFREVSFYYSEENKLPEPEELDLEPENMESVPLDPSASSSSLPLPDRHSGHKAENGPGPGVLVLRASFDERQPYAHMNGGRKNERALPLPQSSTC
T7 sequence (Q9P1W9 whole entry): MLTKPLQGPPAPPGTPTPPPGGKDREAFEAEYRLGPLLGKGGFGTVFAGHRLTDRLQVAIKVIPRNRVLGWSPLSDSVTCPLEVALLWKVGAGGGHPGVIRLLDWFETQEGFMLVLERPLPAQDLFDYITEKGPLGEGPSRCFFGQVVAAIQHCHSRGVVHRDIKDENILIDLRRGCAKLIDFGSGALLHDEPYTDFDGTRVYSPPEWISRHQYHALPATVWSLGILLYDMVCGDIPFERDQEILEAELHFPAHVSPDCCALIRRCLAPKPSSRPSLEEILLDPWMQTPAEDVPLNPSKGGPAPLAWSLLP
T15 sequence (Q3U3Q1 whole entry): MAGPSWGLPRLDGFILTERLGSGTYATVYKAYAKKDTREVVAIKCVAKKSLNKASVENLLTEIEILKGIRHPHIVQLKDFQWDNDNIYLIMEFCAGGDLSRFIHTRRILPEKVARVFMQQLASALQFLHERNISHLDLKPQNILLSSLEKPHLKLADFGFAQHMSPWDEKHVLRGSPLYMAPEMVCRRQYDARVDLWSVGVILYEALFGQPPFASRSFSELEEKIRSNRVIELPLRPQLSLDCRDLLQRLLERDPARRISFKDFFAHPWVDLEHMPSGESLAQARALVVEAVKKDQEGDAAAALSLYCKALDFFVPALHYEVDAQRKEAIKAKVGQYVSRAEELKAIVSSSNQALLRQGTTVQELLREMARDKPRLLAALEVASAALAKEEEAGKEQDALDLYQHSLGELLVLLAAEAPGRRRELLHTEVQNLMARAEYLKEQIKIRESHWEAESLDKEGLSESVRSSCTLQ
T13 sequence (P07947 whole entry): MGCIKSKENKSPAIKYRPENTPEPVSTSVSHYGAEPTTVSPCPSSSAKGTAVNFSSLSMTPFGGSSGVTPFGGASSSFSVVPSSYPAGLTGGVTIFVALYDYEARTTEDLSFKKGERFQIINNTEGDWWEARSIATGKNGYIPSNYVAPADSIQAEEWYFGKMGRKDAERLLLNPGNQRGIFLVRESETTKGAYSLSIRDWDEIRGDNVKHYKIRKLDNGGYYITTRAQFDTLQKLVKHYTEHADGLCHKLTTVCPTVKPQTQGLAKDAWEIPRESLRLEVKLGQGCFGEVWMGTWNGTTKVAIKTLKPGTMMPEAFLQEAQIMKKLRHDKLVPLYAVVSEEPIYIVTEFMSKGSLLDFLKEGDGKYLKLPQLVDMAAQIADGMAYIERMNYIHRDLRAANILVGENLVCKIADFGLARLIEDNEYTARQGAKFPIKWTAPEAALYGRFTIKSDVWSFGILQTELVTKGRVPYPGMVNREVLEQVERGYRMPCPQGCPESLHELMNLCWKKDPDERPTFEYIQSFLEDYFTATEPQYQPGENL
T32 sequence (Q9UQB9 whole entry): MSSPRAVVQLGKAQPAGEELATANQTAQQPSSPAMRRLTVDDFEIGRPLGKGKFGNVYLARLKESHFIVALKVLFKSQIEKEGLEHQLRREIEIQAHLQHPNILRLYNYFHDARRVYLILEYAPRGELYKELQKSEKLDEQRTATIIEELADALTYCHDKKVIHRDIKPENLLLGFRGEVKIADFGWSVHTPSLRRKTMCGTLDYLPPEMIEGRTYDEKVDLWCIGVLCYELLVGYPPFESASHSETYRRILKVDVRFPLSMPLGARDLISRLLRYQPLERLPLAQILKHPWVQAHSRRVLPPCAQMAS

NC(=O)c1ccc(-c2nc(-c3ccc4c(c3)OCCO4)c(-c3ccccn3)[nH]2)cc1 [D4476, 4-[4-(2,3-Dihydro-benzo[1,4]dioxin-6-yl)-5-pyridin-2-yl-1H-imidazol-2-yl]benzamide]
< 50%: PAK1 | ACK1 | STK11 | CSNK2A1 | RIPK2 | FLT3 | PIM2 | FGFR1 | NEK6 | ITK | CSK | FRK | YES | LTK | ULK3(mouse) | CAMK2G | CAMK1D | EPHA8 | ROS1 | ERBB2 | CLK3 | JNK1 | PLK4 | IGF1R | PHKG2 | CSNK1G1 | BIKE | STK10 | TTK | FES | STK17A | AURKC | ERBB4 | STK17B | AAK1 | JAK1(Kin.Dom1) | EGFR | SRC | VEGFR2 | CAMK1G

NC(=O)c1ccc(-c2nc(-c3ccc4c(c3)OCO4)c(-c3ccccn3)[nH]2)cc1 [SB431542, 4-(4-benzo-[1,3]dioxol-5-yl-5-pyridin-2-yl-1H-imidazol-2-yl)benzamide]
< 50%: PAK1 | ACK1 | STK11 | CSNK2A1 | RIPK2 | FLT3 | PIM2 | FGFR1 | NEK6 | ITK | CSK | FRK | YES | LTK | ULK3(mouse) | CAMK2G | CAMK1D | EPHA8 | ROS1 | ERBB2 | CLK3 | JNK1 | PLK4 | IGF1R | PHKG2 | CSNK1G1; 10 μM, CSNK1G1, read-out: % Inhibition | BIKE | STK10 | TTK | FES | STK17A | AURKC | ERBB4 | STK17B | AAK1 | JAK1(Kin.Dom1) | EGFR | SRC | VEGFR2 | CAMK1G
